{
  "source": "paper PMC9500498",
  "about": "(Circulation research, 2021)",
  "key": {"CaM [1]": {"target": "T1, CaM (Homo sapiens, UniProt P0DP23)", "assay": "SPR of immobilized biotin-ahx-AKAP18δ", "format": "binding"}, "CaMKIIδ-T287D [2]": {"target": "T2, CaMKIIδ-T287D (Homo sapiens, UniProt Q13557, T287D)", "T2 sequence (Q13557 whole entry T287D)": "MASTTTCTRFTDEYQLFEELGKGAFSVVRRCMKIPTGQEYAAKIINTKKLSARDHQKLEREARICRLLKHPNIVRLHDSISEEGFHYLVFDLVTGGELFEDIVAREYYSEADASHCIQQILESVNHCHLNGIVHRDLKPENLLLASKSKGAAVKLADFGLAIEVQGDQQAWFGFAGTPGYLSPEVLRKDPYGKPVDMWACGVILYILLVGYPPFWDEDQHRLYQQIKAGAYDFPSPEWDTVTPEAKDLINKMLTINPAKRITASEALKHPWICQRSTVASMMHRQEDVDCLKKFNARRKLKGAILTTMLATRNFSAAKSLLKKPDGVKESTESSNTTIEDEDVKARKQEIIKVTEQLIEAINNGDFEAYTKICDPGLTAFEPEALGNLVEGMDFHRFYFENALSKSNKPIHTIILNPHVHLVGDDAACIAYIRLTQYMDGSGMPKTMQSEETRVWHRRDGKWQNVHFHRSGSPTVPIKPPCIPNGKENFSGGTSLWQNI", "assay": "In vitro CaMKII kinase assay", "format": "biochemical", "conditions": "32P incorporation into syntide; compared among AKAP18δ-N sequences"}, "CaM [3]": {"target": "T1, CaM", "assay": "CaM-agarose precipitation in the presence of Ca2+, immunoblot", "format": "binding", "conditions": "Suppl. Fig. 4b–c"}, "Ca^2+/CaM": {"system": "Ca^2+/CaM", "assay": "ELISA-based binding of biotinylated peptide to CaM-coated wells", "conditions": "biotinylated peptide vs scrambled control, n=6"}, "CaMKIIδ-T287D [4]": {"target": "T2, CaMKIIδ-T287D", "conditions": "compared with AKAP18δ-N (55–98), Suppl. Fig. 2j–k"}, "pThr17-PLN": {"system": "pThr17-PLN", "format": "cell-based", "conditions": "neonatal rat cardiomyocytes; Suppl. Fig. 6a–b"}, "CaMKIIδ-T287A [5]": {"system": "CaMKIIδ-T287A", "assay": "In vitro CaMKII kinase assay", "format": "biochemical", "conditions": "CaM omitted; 32P incorporation into syntide, n=6"}, "CaMKIIδ-T287A [6]": {"system": "CaMKIIδ-T287A", "assay": "CaMKIIδ-catalyzed phosphorylation of Thr17-PLN at 0.5 μM Ca2+, immunoblot", "format": "biochemical", "conditions": "0.5 μM free Ca2+"}, "CaMKIIδ-T287A [7]": {"system": "CaMKIIδ-T287A", "assay": "Immunoprecipitation of CaM with CaMKIIδ-T287A", "format": "binding", "conditions": "immunoprecipitation in the presence of CaM, n=15"}, "CaMKIIδ": {"system": "CaMKIIδ", "assay": "Overlay of 20-mer overlapping CaMKIIδ peptide arrays with biotinylated peptide", "format": "binding", "conditions": "20-mer overlapping CaMKIIδ peptides on membranes"}, "CaMKIIδ-T287D [8]": {"target": "T2, CaMKIIδ-T287D", "assay": "CaMKIIδ-T287D-catalyzed phosphorylation of biotin-ahx-PLN", "format": "biochemical", "conditions": "biotin-ahx-PLN (1–30) as substrate, vs scrambled control peptide, n=7"}},
  "note": "Peptide text beside a SMILES is read from it.",
  "data": [
    {"smiles": "CC[C@H](C)[C@H](NC(=O)[C@@H]1CCCN1C(=O)[C@@H](NC(=O)[C@H](CO)NC(=O)[C@H](CC(C)C)NC(=O)[C@H](Cc1ccccc1)NC(=O)[C@H](Cc1ccc(O)cc1)NC(=O)[C@H](CC(N)=O)NC(=O)[C@@H]1CCCN1C(=O)[C@H](CCC(N)=O)NC(=O)[C@H](Cc1ccc(O)cc1)NC(=O)[C@H](CC(=O)O)NC(=O)[C@H](CCCCN)NC(=O)[C@H](CCCCN)NC(=O)[C@H](C)NC(=O)[C@H](CCCCN)NC(=O)[C@H](CCCCN)NC(=O)[C@H](CCCNC(=N)N)NC(=O)[C@H](CCCCN)NC(=O)[C@@H](N)CCCCN)[C@@H](C)CC)C(=O)O", "note": "[AKAP18δ-N (79–98)] (H-KKRKKAKKDYQPNYFLSIPI-OH; N-terminus and C-terminus assumed)", "values": [
      {"measurement": "kon", "setting": "CaM [1]; read-out: association rate constant (ka)", "result": 130, "unit": "M⁻¹ s⁻¹"},
      {"measurement": "koff", "setting": "CaM [1]; read-out: dissociation rate constant (kd)", "result": 0.00053, "unit": "s⁻¹"},
      {"measurement": "effect on CaMKIIδ-T287D activity (in words)", "setting": "CaMKIIδ-T287D [2]", "result": "inhibitory"},
      {"measurement": "precipitation with CaM-agarose", "setting": "CaM [3]", "result": "precipitated with CaM-agarose"},
      {"measurement": "CaM binding, ELISA-based assay", "setting": "Ca^2+/CaM", "result": "confirmed"},
      {"measurement": "SPR binding to CaMKIIδ-T287D (in words)", "setting": "CaMKIIδ-T287D [4]", "result": "bound strongly"}
    ]},
    {"smiles": "CC[C@H](C)[C@H](NC(=O)[C@H](CCC(N)=O)NC(=O)[C@H](Cc1ccc(O)cc1)NC(=O)[C@H](CC(C)C)NC(=O)[C@@H](NC(=O)[C@H](CCC(=O)O)NC(=O)[C@H](CCC(=O)O)NC(=O)CNC(=O)[C@H](Cc1ccccc1)NC(=O)[C@H](CCCNC(=N)N)NC(=O)[C@H](Cc1c[nH]cn1)NC(=O)[C@H](CC(=O)O)NC(=O)[C@@H](NC(=O)[C@H](Cc1ccccc1)NC(=O)[C@H](CCC(N)=O)NC(=O)[C@H](CCC(=O)O)NC(=O)[C@H](Cc1ccc(O)cc1)NC(=O)[C@H](CC(C)C)NC(=O)CNC(=O)[C@@H]1CCCN1C(=O)[C@H](CCC(=O)O)NC(=O)[C@@H](NC(=O)[C@H](CCCCN)NC(=O)[C@H](CCCNC(=N)N)NC(=O)[C@@H](NC(=O)CNC(=O)[C@H](CCCCN)NC(=O)[C@@H](N)CCCCN)C(C)C)[C@@H](C)CC)[C@@H](C)CC)[C@@H](C)CC)C(=O)N[C@@H](CC(=O)O)C(=O)O", "note": "[AKAP18δ-C]", "values": [
      {"measurement": "pThr17-PLN level", "setting": "pThr17-PLN", "result": "augmented"},
      {"measurement": "substrate phosphorylation by CaMKIIδ-T287A", "setting": "CaMKIIδ-T287A [5]", "result": "increased substrate phosphorylation"},
      {"measurement": "Thr17-PLN phosphorylation by CaMKIIδ-T287A", "setting": "CaMKIIδ-T287A [6]", "result": "further increased Thr17-PLN phosphorylation in the presence of either AKAP18δ-C (tendency)"},
      {"measurement": "trapping of CaM to CaMKIIδ-T287A", "setting": "CaMKIIδ-T287A [7]", "result": "induced trapping of CaM"},
      {"measurement": "CaMKIIδ binding on peptide arrays", "setting": "CaMKIIδ", "result": "too weak or dynamic to be detected"},
      {"measurement": "cytotoxicity (and changes at basal level)", "setting": "cardiomyocytes", "result": "No cytotoxicity"}
    ]},
    {"smiles": "CC[C@H](C)[C@H](NC(=O)[C@@H]1CCCN1C(=O)[C@@H](NC(=O)[C@H](CO)NC(=O)[C@H](CC(C)C)NC(=O)[C@H](Cc1ccccc1)NC(=O)[C@H](Cc1ccc(O)cc1)NC(=O)[C@H](CC(N)=O)NC(=O)[C@@H]1CCCN1C(=O)[C@H](CCC(N)=O)NC(=O)[C@H](Cc1ccc(O)cc1)NC(=O)[C@H](CC(=O)O)NC(=O)[C@H](CCCCN)NC(=O)[C@H](CCCCN)NC(=O)[C@H](C)NC(=O)[C@H](CCCCN)NC(=O)[C@H](CCCCN)NC(=O)[C@H](CCCNC(=N)N)NC(=O)[C@H](CCCCN)NC(=O)[C@H](CCCCN)NC(=O)[C@@H](NC(=O)[C@H](Cc1c[nH]cn1)NC(=O)[C@H](CC(=O)O)NC(=O)[C@H](CC(N)=O)NC(=O)[C@H](CCCNC(=N)N)NC(=O)[C@H](CC(=O)O)NC(=O)CNC(=O)[C@H](CCCNC(=N)N)NC(=O)[C@H](CC(N)=O)NC(=O)[C@H](CCC(=O)O)NC(=O)[C@H](CCCCN)NC(=O)[C@H](CO)NC(=O)[C@H](CCCNC(=N)N)NC(=O)[C@H](CCCCN)NC(=O)[C@@H]1CCCN1C(=O)[C@H](CC(N)=O)NC(=O)CNC(=O)[C@H](CCC(N)=O)NC(=O)[C@@H]1CCCN1C(=O)[C@@H](NC(=O)[C@H](CC(N)=O)NC(=O)CNC(=O)[C@H](CCC(N)=O)NC(=O)[C@@H]1CCCN1)C(C)C)C(C)C)[C@@H](C)CC)C(=O)O", "note": "[AKAP18δ-N (55–98)]", "values": [
      {"measurement": "CaMKIIδ-T287D-catalyzed phosphorylation of Thr17 in PLN", "setting": "CaMKIIδ-T287D [8]", "result": "reduced"}
    ]}
  ]
}
